Measured values published in patent US20130324576A1, “THERAPEUTIC COMPOUNDS” (Takeda Pharmaceutical Company Limited, priority 2012, published 2013).

Target: T1, human PKR1 receptors (Homo sapiens, UniProt Q8TCW9)
T1 construct: expressed in transfected cells; host or cells: RBL2H3 cells (rat basophilic leukaemia line) expressing human PKR1
Test: PKR1 antagonist assay: block of PK1-mediated intracellular calcium release (FLIPR Tetra, Calcium 5 dye)
Type: cell-based
Conditions: RBL2H3 cells expressing human PKR1; 10 min pre-incubation, stimulation with PK1 at EC80; calcium fluorescence
Outline: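 RBL2H3 cells expressing human PKR1, loaded 1 h at 37 °C with Calcium 5 dye plus 1 mM probenecid in HBSS/25 mM HEPES/0.1% BSA, pH 7.4. Compounds (0.32 nM–10 µM final) preincubated 10 min, then PK1 added at EC80; fluorescence read at 525 nm (excitation 485 nm).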

T1 sequence (Q8TCW9 whole entry): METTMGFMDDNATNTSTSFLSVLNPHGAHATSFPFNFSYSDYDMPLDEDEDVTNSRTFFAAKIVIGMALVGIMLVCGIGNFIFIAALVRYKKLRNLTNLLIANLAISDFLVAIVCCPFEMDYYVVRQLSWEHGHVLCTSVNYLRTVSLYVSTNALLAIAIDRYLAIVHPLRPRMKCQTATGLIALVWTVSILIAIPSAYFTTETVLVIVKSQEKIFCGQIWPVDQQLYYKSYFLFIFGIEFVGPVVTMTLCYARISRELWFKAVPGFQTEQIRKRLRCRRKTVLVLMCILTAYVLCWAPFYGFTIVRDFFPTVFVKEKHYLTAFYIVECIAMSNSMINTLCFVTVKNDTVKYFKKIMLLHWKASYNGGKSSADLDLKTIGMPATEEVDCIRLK

IC50 [nM]	Structure (SMILES)
170	COc1cc(Cl)ccc1OC1CCN(S(=O)(=O)c2c(C)nn(C)c2C)CC1 [Example 74, 4-(4-Chloro-2-methoxyphenoxy)-1-((1,3,5-trimethyl-1H-pyrazol-4-yl)sulfonyl)piperidine]
220	Cc1nn(C)c(C)c1S(=O)(=O)N1CCC(Oc2ccc3ccccc3c2)CC1 [Example 23, 4-(Naphthalen-2-yloxy)-1-[(1,3,5-trimethyl-1H-pyrazol-4-yl)sulfonyl]piperidine]
160	COC(c1ccc(Cl)cc1)C1CCN(S(=O)(=O)c2c(C)n[nH]c2C)CC1 (single isomer, unassigned) [Example 98, 4-((4-Chlorophenyl)(methoxy)methyl)-1-((3,5-dimethyl-1H-pyrazol-4-yl)sulfonyl)piperidine]
